Test systems include SNB-75 CNS; SW-620 colon; OVCAR-5 ovarian; SK-OV-3 ovarian; UACC-62 melanoma; MCF7 breast; HCC-2998 colon; NCI-H522 lung; SF-295 CNS; HOP-62 NSCLC; SN12C renal.
Holding throughout (assay): growth of human tumour cells (NCI), 48 h

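Each compound was tested at five concentrations against cells in 96-well plates for 48 hours. TGI: concentration producing complete growth inhibition.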

Turning to `O=C(O)C1=CN(c2ccncc2)C(c2ccco2)=CC1c1ccccc1[N+](=O)[O-]` (stereo not drawn), the TGI is 22.1 µM in the assay on SNB-75 CNS; more than 31.7 µM in the assay on SW-620 colon; 25.5 µM in the assay with OVCAR-5 ovarian; 33.6 µM with SK-OV-3 ovarian; 33.6 µM with UACC-62 melanoma; 10.7 µM with MCF7 breast. For the same molecule, the TGI is 3.62 µM with HCC-2998 colon; 25.3 µM in the assay on NCI-H522 lung; 26.2 µM in the assay with SF-295 CNS; 32.9 µM in the assay with HOP-62 NSCLC; 29.1 µM in the assay on SN12C renal.
In the case of `O=c1oc2ccc3ccccc3c2cc1-c1cn2c(n1)sc1ccccc12`, the TGI with SNB-75 CNS, with SW-620 colon, with OVCAR-5 ovarian, in the assay with SK-OV-3 ovarian, with UACC-62 melanoma and in the assay on MCF7 breast was more than 100 µM each time. Besides, the TGI in the assay with HCC-2998 colon, in the assay with NCI-H522 lung, with SF-295 CNS and in the assay on HOP-62 NSCLC was more than 100 µM in each case.
For `CCC(c1ccc(OC)cc1)C1NC(=S)NC1=O` (stereo not drawn), the TGI with SNB-75 CNS, with SW-620 colon, with OVCAR-5 ovarian, with SK-OV-3 ovarian, in the assay with MCF7 breast and in the assay on HCC-2998 colon was more than 50 µM throughout. Also, the TGI in the assay on NCI-H522 lung, in the assay with SF-295 CNS, in the assay with HOP-62 NSCLC and with SN12C renal was more than 50 µM in each case.
`O=C(/C=C/c1ccc(O)c(O)c1)NC(COC(=O)/C=C/c1ccc(O)c(O)c1)C(=O)O` (stereo not drawn): the TGI in the assay on SNB-75 CNS, in the assay on SW-620 colon, with OVCAR-5 ovarian, in the assay on SK-OV-3 ovarian, with UACC-62 melanoma and with MCF7 breast was more than 100 µM each time. In addition, the TGI in the assay on HCC-2998 colon, with NCI-H522 lung, in the assay on SF-295 CNS, in the assay on HOP-62 NSCLC and in the assay on SN12C renal was more than 100 µM throughout.
For `CN1CC=C(c2cccn2C)CC1`, the TGI with SNB-75 CNS, with SW-620 colon, in the assay with OVCAR-5 ovarian, in the assay on SK-OV-3 ovarian, with UACC-62 melanoma and in the assay on MCF7 breast was more than 100 µM each time. For the same molecule, the TGI in the assay on HCC-2998 colon, with NCI-H522 lung, with SF-295 CNS, in the assay on HOP-62 NSCLC and with SN12C renal was more than 100 µM in each case.
Turning to `CCCNCC(O)CNc1ccc(NCC(O)CNCCC)c2c1C(=O)c1ccccc1C2=O` (stereo not drawn), the TGI in the assay with SNB-75 CNS is 8.83 µM; in the assay on SW-620 colon, 7.21 µM; in the assay with OVCAR-5 ovarian, 3.99 µM; in the assay on SK-OV-3 ovarian, 7.78 µM; in the assay on UACC-62 melanoma it was 4.95 µM; in the assay on MCF7 breast it was 7.5 µM. Further, the TGI in the assay with HCC-2998 colon came to 3.21 µM; in the assay with NCI-H522 lung, 7.81 µM; with HOP-62 NSCLC, 8 µM; with SN12C renal it was 7.67 µM.
`Cc1cc(C)c(NC(=O)/C=C/c2ccccc2)c(C)c1`: the TGI in the assay with SNB-75 CNS is more than 100 µM; in the assay with SW-620 colon, more than 100 µM; in the assay on OVCAR-5 ovarian, more than 100 µM; in the assay on SK-OV-3 ovarian, more than 100 µM; in the assay with UACC-62 melanoma it was 93.8 µM; with MCF7 breast, more than 100 µM. The TGI in the assay on HCC-2998 colon is more than 100 µM; with NCI-H522 lung, 61.8 µM; with SF-295 CNS it was more than 100 µM; in the assay with HOP-62 NSCLC it was more than 100 µM.
Take `CCc1ccc(Nc2cc(=O)n(C)c(SCc3ccccc3)n2)cc1`: the TGI in the assay on SNB-75 CNS, in the assay with SW-620 colon, in the assay with OVCAR-5 ovarian, in the assay on SK-OV-3 ovarian, with UACC-62 melanoma and in the assay with MCF7 breast was more than 100 µM throughout. The TGI in the assay on NCI-H522 lung was more than 100 µM; in the assay on SF-295 CNS, more than 100 µM; in the assay on HOP-62 NSCLC, more than 100 µM; in the assay with SN12C renal, 42.8 µM.
`CN1C(C)(C)CC(=O)C(Br)C1(C)C` (stereo not drawn): the TGI in the assay on SNB-75 CNS, with SW-620 colon, with OVCAR-5 ovarian, in the assay with SK-OV-3 ovarian, in the assay with UACC-62 melanoma and in the assay with MCF7 breast was more than 100 µM in each case. In addition, the TGI with NCI-H522 lung, with SF-295 CNS, in the assay with HOP-62 NSCLC and in the assay on SN12C renal was more than 100 µM throughout.
On to `O=C1/C(=C/c2ccc(Cl)cc2)N=C(c2ccccc2)N1/N=C/c1ccccc1O`, for which the TGI in the assay with SNB-75 CNS was 31 µM; in the assay with SW-620 colon it was more than 100 µM; in the assay with OVCAR-5 ovarian it was 34.8 µM; in the assay on SK-OV-3 ovarian, 22.4 µM; in the assay on UACC-62 melanoma it was 30.3 µM; with MCF7 breast, more than 100 µM. The TGI in the assay on NCI-H522 lung is 35.6 µM; with SF-295 CNS, 29.7 µM; with HOP-62 NSCLC it was 5.21 µM; in the assay on SN12C renal it was more than 100 µM.
In the case of `O=C1CCN2C(=N1)Sc1ccccc12`, the TGI in the assay with SNB-75 CNS, in the assay on SW-620 colon, with OVCAR-5 ovarian, in the assay with SK-OV-3 ovarian, with UACC-62 melanoma and with MCF7 breast was more than 100 µM throughout. The TGI in the assay on NCI-H522 lung, with SF-295 CNS, in the assay with HOP-62 NSCLC and in the assay with SN12C renal was more than 100 µM each time.
With `CC(=O)O[C@H]1CC[C@@]2(C)C(=CC[C@@H]3[C@@H]2CC[C@](C)(c2nnc(C)o2)[C@H]3CC#N)C1`, the TGI with SNB-75 CNS, with SW-620 colon, in the assay with OVCAR-5 ovarian, with SK-OV-3 ovarian, with UACC-62 melanoma and in the assay with MCF7 breast was more than 100 µM throughout. Further, the TGI in the assay on NCI-H522 lung, in the assay on SF-295 CNS, in the assay on HOP-62 NSCLC and in the assay on SN12C renal was more than 100 µM throughout.
On to `Cc1cccc(N=C/C=C(\Cl)c2ccc3ccccc3c2)c1`, for which the TGI is more than 58.2 µM in the assay on SNB-75 CNS; more than 66.5 µM in the assay with SW-620 colon; more than 65.6 µM in the assay on OVCAR-5 ovarian; 53.5 µM in the assay with SK-OV-3 ovarian; 32.5 µM in the assay with UACC-62 melanoma; more than 95.9 µM in the assay with MCF7 breast. For the same molecule, the TGI in the assay on NCI-H522 lung was more than 78.7 µM; in the assay with SF-295 CNS, more than 58.7 µM; in the assay on HOP-62 NSCLC, 35.4 µM; in the assay with SN12C renal, 41.1 µM.
As to `Cc1ccc(S(=O)(=O)ON2C(=O)c3c(N)c(C#N)c(-c4ccccc4)c(-c4ccccc4)c3C2=O)cc1`, the TGI in the assay with SNB-75 CNS was more than 100 µM; with SW-620 colon it was 30.8 µM; in the assay on OVCAR-5 ovarian, 60 µM; in the assay with SK-OV-3 ovarian it was more than 100 µM; in the assay on UACC-62 melanoma, 33.7 µM; in the assay on MCF7 breast, 37.4 µM. Also, the TGI with HCC-2998 colon is 89.1 µM; with NCI-H522 lung it was 33.2 µM; with SF-295 CNS, 92.8 µM; in the assay on SN12C renal it was 40 µM.
With `NC(Cc1ccccc1)c1nn[nH]n1` (stereo not drawn), the TGI with SNB-75 CNS, with SW-620 colon, in the assay on OVCAR-5 ovarian, in the assay on SK-OV-3 ovarian, in the assay on UACC-62 melanoma and in the assay with MCF7 breast was more than 100 µM each time. For the same molecule, the TGI in the assay on NCI-H522 lung, with SF-295 CNS, in the assay on HOP-62 NSCLC and with SN12C renal was more than 100 µM each time.
Regarding `CCOC(=O)C1=CNC(C(=O)OCC)C1c1cccn1-c1ccccc1` (stereo not drawn), the TGI in the assay with SNB-75 CNS is 65.4 µM; in the assay with SW-620 colon, more than 100 µM; in the assay on OVCAR-5 ovarian it was more than 100 µM; in the assay on UACC-62 melanoma, more than 100 µM; in the assay with MCF7 breast, more than 100 µM; in the assay on HCC-2998 colon it was more than 100 µM. In addition, the TGI is 59.1 µM with NCI-H522 lung, 74.5 µM with SF-295 CNS, more than 100 µM in the assay with HOP-62 NSCLC and more than 100 µM with SN12C renal.
On to `C(=N\NC1=NCCN1)/c1cccc2cc3ccncc3nc12`, for which the TGI in the assay with SNB-75 CNS is 5.04 µM; with SW-620 colon, 6.91 µM; in the assay on SK-OV-3 ovarian, 23.5 µM; with UACC-62 melanoma, 31.4 µM; in the assay with MCF7 breast, 14.5 µM; with HCC-2998 colon, 18.3 µM. The TGI came out at 11.9 µM in the assay with NCI-H522 lung, 14.5 µM in the assay on SF-295 CNS, 19.7 µM in the assay with HOP-62 NSCLC and 14.9 µM in the assay on SN12C renal.
Take `Cc1c2ccccc2c(C2C3C(=O)N(c4cccc5ccccc45)C(=O)C3ON2Cc2ccc(CC(N)=O)cc2)c2ccccc12` (stereo not drawn): the TGI in the assay on SNB-75 CNS is 43.5 µM; in the assay with SW-620 colon, more than 50 µM; in the assay with OVCAR-5 ovarian, more than 50 µM; with SK-OV-3 ovarian, more than 50 µM; in the assay on UACC-62 melanoma, 47.3 µM; in the assay with MCF7 breast, more than 50 µM. Further, the TGI in the assay on NCI-H522 lung, in the assay on SF-295 CNS, with HOP-62 NSCLC and in the assay on SN12C renal was more than 50 µM throughout.
`CC(C)CC(NC=O)C(=O)NC(Cc1ccccc1)NC(=O)CNC(=O)C(C)NC(=O)C(N)Cc1ccc(O)cc1` (stereo not drawn): the TGI in the assay on SNB-75 CNS, with SW-620 colon, with OVCAR-5 ovarian, in the assay on SK-OV-3 ovarian, in the assay on UACC-62 melanoma and in the assay with MCF7 breast was more than 100 µM throughout. Moreover, the TGI with NCI-H522 lung, in the assay on SF-295 CNS, in the assay with HOP-62 NSCLC and in the assay on SN12C renal was more than 100 µM each time.
With `COc1cc2cc3c4cc(OC)c(OC)cc4cc[n+]3c(C)c2cc1OC`, the TGI with SNB-75 CNS was 45.7 µM; in the assay with SW-620 colon it was more than 100 µM; in the assay with OVCAR-5 ovarian, more than 100 µM; with SK-OV-3 ovarian, more than 100 µM; in the assay on UACC-62 melanoma, 98.6 µM; with MCF7 breast, more than 100 µM. For the same molecule, the TGI in the assay on HCC-2998 colon, with NCI-H522 lung, in the assay with SF-295 CNS and in the assay on SN12C renal was more than 100 µM in each case.
